Data published in patent US20220226298A1, “GPR40 AGONISTS” (Kallyope, Inc., priority 2019, published 2022).

Tests used:
[1] = In vivo plasma levels in mice; settings: mouse, oral, 30 mg/kg; male C57BL/6J mice, dose 30 mpk, plasma concentration of test article (parent) 30 min post dose; read-out: 30 min Exposure: Parent
Protocol: Male C57BL/6J mice 10-12 weeks old were acclimated to dosing (e.g., oral gavage) 2-3 times prior to the study. On the day of the study, food was removed for 5-6 hours, then the mice were dosed with test article or vehicle (e.g., by oral gavage at a volume of 10 mL/kg). Animals were euthanized with carbon dioxide typically 30 min post dose. Blood was collected via cardiac puncture for measurement of plasma concentrations of test article (parent) or metabolite resulting from ester cleavage.

human GPR40 = molecular target: T1, human GPR40 (Homo sapiens, UniProt O14842); assay: Inositol phosphate accumulation assay (IP1 HTRF) in CHO-K1 cells expressing human GPR40; assay type: cell-based; settings: 90 min stimulation
T1 construct: host or cells: CHO-K1
Protocol: CHO-KI cells expressing human GPR40 were purchased from DiscoverX (95-1005C2). HEK293 cells expressing mouse FFAR1 were prepared using a mouse FFAR1 carrying plasmid purchased from OriGene Technologies (MR222997). The cells were transfected using Lipofectamine 2000 using manufacturer instructions and stable cell line was established from a single cell using geneticine selection. Assay ready frozen (ARF) cells were prepared and used throughout the study.
The assay was performed in a 384-well plate format using IP1 assay kit from Cis-Bio. ARF cells expressing FFAR1 (mouse and human) were thawed, washed and then plated in the appropriate medium (F12 based medium for CHO hFFAR1 and DMEM based medium for HEK293 mFFAR1—both were supplemented with 10% FBS and penicillin/streptomycin). 20 μL of 3.5×10^5 cells/mL were plated on a Poly D-Lysine coated 384-well white plate. The cells were then incubated for 16 hr at 37° C./5% CO2. After 16 hr the medium was removed and 15 μL of stimulation buffer containing the test compounds was added to the cells. The plates were then incubated for 90 min at 37° C./5% CO2. 5 μL of detection buffer (prepared as described in the IP-one kit) was added to each well and the plates were incubated at RT for 1 hr.
[…] was measured using ClarioSTAR plate reader, calculating the ratio between emissions at 665 nm and 620 nm (HTRF ratio). HTRF ratio for positive (Max) and negative (Min) controls were used to normalize HTRF data and generate values for % activity. EC50 and Max activity values were determined using a standard 4-parameter fit.

T1 sequence (O14842 whole entry): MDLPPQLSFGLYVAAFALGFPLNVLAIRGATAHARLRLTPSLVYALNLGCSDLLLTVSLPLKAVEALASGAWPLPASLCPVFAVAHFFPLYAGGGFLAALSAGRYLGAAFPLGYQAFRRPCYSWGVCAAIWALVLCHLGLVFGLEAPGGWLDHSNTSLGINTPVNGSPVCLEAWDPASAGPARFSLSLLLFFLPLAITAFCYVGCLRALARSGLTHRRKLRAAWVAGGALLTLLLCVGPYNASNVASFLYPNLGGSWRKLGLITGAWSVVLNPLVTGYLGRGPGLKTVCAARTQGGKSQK

Row | SMILES | concentration at 30 min [1] [nM] | EC50 (human GPR40) [nM]
1 | Cc1cc(-c2cc(O)ncc2F)c(CN(C(C)C)C(C)C)cc1C(=O)Oc1cccc([C@H](C2CC2)[C@@](C)(F)C(=O)O)c1 [Compound 64, (2R,3S)-3-cyclopropyl-3-(3-((5-((diisopropylamino)methyl)-4-(5-fluoro-2-hydroxypyridin-4-yl)-2-methylbenzoyl)oxy)phenyl)-2-fluoro-2-methylpropanoic acid] | – | > 500
2 | COc1cc(-c2ccc(C(=O)Oc3cccc(C(CP(C)(=O)O)C4CC4)c3)cc2CN(C(C)C)C(C)C)c(F)cn1 (centres unmarked) [Compound 66, (2-cyclopropyl-2-(3-((3-((diisopropylamino)methyl)-4-(5-fluoro-2-methoxypyridin-4-yl)benzoyl)oxy)phenyl)ethyl)(methyl)phosphinic acid] | – | > 500
3 | COc1cc(-c2ccc(C(=O)Oc3cccc(C(CS(=O)(=O)O)C4CC4)c3)cc2CN(C(C)C)C(C)C)c(F)cn1 (centres unmarked) [Compound 67, 2-cyclopropyl-2-(3-((3-((diisopropylamino)methyl)-4-(5-fluoro-2-methoxypyridin-4-yl)benzoyl)oxy)phenyl)ethanesulfonic acid] | – | > 500
4 | COc1cc(-c2ccc(C(=O)Oc3cccc([C@H](C4CC4)[C@H](C)C(=O)OCCP(=O)(O)O)c3)cc2CN(C(C)C)C(C)C)c(F)cn1 [Compound 68, (2-(((2S, 3R)-3-cyclopropyl-3-(3-((3-((diisopropylamino)methyl)-4-(5-fluoro-2-methoxypyridin-4-yl)benzoyl)oxy)phenyl)-2-methylpropanoyl)oxy)ethyl)phosphonic acid] | – | 100 to 500
5 | COc1cc(-c2cc(C)c(C(=O)Oc3cccc(C(CP(C)(=O)O)C4CC4)c3)cc2CN(C(C)C)C(C)C)c(F)cn1 (centres unmarked) [Compound 70, (2-cyclopropyl-2-(3-((5-((diisopropylamino)methyl)-4-(5-fluoro-2-methoxypyridin-4-yl)-2-methylbenzoyl)oxy)phenyl)ethyl)(methyl)phosphinic acid] | – | > 500

Stronger by EC50 (human GPR40), values ahead:

Row | concentration at 30 min [1] [nM] | EC50 (human GPR40) [nM] | SMILES
6 | < 2 | ≤ 10 | COc1cc(-c2ccc(C(=O)Oc3cccc([C@@H](CC(=O)O)C4CC4)c3)cc2CN(C(C)C)C(C)C)c(F)cn1 [Compound 15, (S)-3-cyclopropyl-3-(3-((3-((diisopropylamino)methyl)-4-(5-fluoro-2-methoxypyridin-4-yl)benzoyl)oxy)phenyl)propanoic acid]
7 | < 2 | ≤ 10 | COc1cc(-c2ccc(C(=O)Oc3cccc([C@H](C4CC4)[C@H](C)C(=O)O)c3)cc2CN(C(C)C)C(C)C)c(F)cn1 [Compound 26, (2S,3R)-3-cyclopropyl-3-(3-((3-((diisopropylamino)methyl)-4-(5-fluoro-2-methoxypyridin-4-yl)benzoyl)oxy)phenyl)-2-methylpropanoic acid]
8 | < 5 | ≤ 10 | COc1cc(-c2ccc(C(=O)Oc3cccc([C@H](C4CC4)[C@@](C)(F)C(=O)O)c3)cc2CN(C(C)C)C(C)C)c(F)cn1 [Compound 36, (2R,3S)-3-cyclopropyl-3-(3-((3-((diisopropylamino)methyl)-4-(5-fluoro-2-methoxypyridin-4-yl)benzoyl)oxy)phenyl)-2-fluoro-2-methylpropanoic acid]
9 | – | ≤ 10 | COc1cc(-c2ccc(OC(=O)c3cccc([C@H](C4CC4)[C@@](C)(F)C(=O)O)c3)cc2CN(C(C)C)C(C)C)c(F)cn1 [Compound 63, (2R, 3S)-3-cyclopropyl-3-(3-((3-((diisopropylamino)methyl)-4-(5-fluoro-2-methoxypyridin-4-yl)phenoxy)carbonyl)phenyl)-2-fluoro-2-methylpropanoic acid]
10 | – | ≤ 10 | COc1cc(-c2ccc(C(=O)Oc3cccc([C@H](C4CC4)[C@H](C)C(=O)OCc4oc(=O)oc4C)c3)cc2CN(C(C)C)C(C)C)c(F)cn1 [Compound 65, 3-((1R, 2S)-1-cyclopropyl-2-methyl-3-((5-methyl-2-oxo-1,3-dioxol-4-yl)methoxy)-3-oxopropyl)phenyl 3-((diisopropylamino)methyl)-4-(5-fluoro-2-methoxypyridin-4-yl)benzoate]
11 | – | ≤ 10 | COc1cc(-c2ccc(C(=O)Oc3cccc([C@H](C4CC4)[C@H](C)C(=O)O)c3F)cc2CN(C(C)C)C(C)C)c(F)cn1 [Compound 69, (2S,3R)-3-cyclopropyl-3-[3-[3-[(diisopropylamino)methyl]-4-(5-fluoro-2-methoxy-4-pyridyl)benzoyl]oxy-2-fluoro-phenyl]-2-methyl-propanoic acid]
